Values of other authors as cited in patent publication US20230226006A1, “Compositions for the Treatment of Dry Eye and Methods of Use Thereof” (The Schepens Eye Research Institute, Inc., priority 2017, published 2023).

Solubility in organic solvents (organic solvents): well soluble | Solubility in water (water): slightly soluble
SMILES: C=CCN=C=S [Allyl isothiocyanate, 3-Isothiocyanato-1-propene]
